Measurements taken from paper PMC3000536 (Tetrahedron letters, 2011).
Entries after “also recorded” stand apart in the source; their conditions may differ.

Experiments:
[1] = biological target: T1, Rat intestinal cellobiase (Rattus norvegicus, UniProt Q02401); experiment: Glycosidase inhibition, rat intestinal cellobiase; assay type: biochemical
T1 sequence (Q02401 868-1928): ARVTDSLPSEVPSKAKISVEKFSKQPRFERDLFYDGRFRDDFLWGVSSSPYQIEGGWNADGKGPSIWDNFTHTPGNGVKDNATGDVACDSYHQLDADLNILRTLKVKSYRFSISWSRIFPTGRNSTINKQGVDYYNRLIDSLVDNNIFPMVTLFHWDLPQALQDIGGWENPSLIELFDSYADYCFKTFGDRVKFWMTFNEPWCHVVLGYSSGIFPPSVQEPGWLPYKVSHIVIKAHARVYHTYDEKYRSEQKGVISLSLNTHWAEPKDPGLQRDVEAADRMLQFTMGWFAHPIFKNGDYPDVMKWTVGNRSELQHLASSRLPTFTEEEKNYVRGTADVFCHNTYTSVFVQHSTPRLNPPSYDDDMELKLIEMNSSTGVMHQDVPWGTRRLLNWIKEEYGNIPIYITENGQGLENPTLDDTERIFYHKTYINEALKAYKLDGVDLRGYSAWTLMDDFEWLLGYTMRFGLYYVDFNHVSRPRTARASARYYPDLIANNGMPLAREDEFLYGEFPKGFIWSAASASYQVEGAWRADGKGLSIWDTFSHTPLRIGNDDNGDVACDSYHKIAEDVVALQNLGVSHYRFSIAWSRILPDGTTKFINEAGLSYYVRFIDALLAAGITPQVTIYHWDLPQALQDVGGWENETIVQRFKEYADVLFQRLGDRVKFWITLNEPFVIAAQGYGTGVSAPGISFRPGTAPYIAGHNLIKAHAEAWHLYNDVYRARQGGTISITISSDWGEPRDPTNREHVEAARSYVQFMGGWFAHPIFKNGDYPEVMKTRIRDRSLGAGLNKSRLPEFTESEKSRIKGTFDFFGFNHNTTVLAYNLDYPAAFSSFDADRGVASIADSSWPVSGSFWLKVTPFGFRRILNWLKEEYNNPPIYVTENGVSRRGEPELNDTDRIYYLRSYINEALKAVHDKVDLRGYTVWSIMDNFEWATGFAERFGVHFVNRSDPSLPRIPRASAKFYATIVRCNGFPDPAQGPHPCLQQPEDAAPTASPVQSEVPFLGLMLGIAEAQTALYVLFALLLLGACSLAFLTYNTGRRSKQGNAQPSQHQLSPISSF

[2] = biological target: T2, Bovine epididymis α-L-Fucosidase (Bos taurus, UniProt Q2KIM0); experiment: Glycosidase inhibition, bovine epididymis α-L-fucosidase; assay type: biochemical
T2 sequence (Q2KIM0 23-468): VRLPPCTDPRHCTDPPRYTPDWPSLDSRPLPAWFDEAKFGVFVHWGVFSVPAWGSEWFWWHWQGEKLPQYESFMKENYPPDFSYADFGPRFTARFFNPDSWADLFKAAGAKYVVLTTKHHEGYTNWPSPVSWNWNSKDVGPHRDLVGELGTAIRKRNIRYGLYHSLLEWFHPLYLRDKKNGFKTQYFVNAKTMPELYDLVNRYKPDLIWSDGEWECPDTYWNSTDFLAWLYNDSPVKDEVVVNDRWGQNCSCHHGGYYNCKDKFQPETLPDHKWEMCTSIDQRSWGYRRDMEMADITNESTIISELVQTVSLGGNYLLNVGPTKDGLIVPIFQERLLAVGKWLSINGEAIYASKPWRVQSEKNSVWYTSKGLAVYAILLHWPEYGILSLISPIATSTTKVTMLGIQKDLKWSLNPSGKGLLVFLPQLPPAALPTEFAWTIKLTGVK

[3] = biological target: Rat intestinal isomaltase (Rattus norvegicus, UniProt P23739); experiment: Glycosidase inhibition, rat intestinal isomaltase; assay type: biochemical
Rat intestinal maltase = experiment: Glycosidase inhibition, rat intestinal maltase; assay type: biochemical; conditions: read-out: IC50 α-Glucosidase Rat intestinal maltase
F508del-CFTR [4] = biological target: F508del-CFTR (Homo sapiens, UniProt P13569, DEL508-508); experiment: CFTR function in CF-KM4 cells by single-cell fluorescence imaging; assay type: cell-based
Snail β-Mannosidase = experiment: Glycosidase inhibition, snail β-mannosidase; assay type: biochemical; conditions: read-out: IC50 β-Mannosidase Snail
[5] = biological target: Coffee beans α-Galactosidase (Coffea arabica, UniProt Q42656); experiment: Glycosidase inhibition, coffee beans α-galactosidase; assay type: biochemical
Jack beans α-Mannosidase = biological target: T3, Jack beans α-Mannosidase (Canavalia ensiformis, UniProt C0HJB3); experiment: Glycosidase inhibition, jack beans α-mannosidase; assay type: biochemical
T3 sequence (C0HJB3 1-981): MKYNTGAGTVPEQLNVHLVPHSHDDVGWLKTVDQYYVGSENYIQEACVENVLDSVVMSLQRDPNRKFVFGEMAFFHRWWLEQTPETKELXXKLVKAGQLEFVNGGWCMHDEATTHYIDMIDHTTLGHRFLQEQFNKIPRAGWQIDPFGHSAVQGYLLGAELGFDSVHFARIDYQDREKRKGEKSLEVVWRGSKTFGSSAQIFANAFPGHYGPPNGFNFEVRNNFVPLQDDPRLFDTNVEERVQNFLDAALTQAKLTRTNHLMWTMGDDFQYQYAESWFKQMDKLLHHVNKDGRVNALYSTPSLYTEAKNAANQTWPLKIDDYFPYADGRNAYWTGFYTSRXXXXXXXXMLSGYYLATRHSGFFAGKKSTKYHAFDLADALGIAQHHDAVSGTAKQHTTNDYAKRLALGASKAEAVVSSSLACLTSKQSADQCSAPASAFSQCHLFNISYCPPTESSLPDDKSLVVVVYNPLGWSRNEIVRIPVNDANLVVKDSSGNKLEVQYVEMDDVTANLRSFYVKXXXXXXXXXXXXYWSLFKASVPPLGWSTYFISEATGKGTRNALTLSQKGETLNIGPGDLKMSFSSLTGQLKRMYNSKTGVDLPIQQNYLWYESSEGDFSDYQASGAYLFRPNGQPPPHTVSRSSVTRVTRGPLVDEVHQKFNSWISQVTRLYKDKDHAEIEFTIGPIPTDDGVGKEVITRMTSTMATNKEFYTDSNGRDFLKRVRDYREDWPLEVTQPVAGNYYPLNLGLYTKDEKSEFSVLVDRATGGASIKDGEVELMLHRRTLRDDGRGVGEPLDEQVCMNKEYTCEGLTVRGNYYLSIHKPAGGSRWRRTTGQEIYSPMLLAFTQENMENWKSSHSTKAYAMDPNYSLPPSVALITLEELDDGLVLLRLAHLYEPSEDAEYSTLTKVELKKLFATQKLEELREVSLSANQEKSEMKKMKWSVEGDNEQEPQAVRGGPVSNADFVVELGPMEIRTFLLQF

[6] = biological target: Bovine liver β-Galactosidase; experiment: Glycosidase inhibition, bovine liver β-galactosidase; assay type: biochemical; conditions: read-out: IC50 β-Galactosidase Bovine liver
[7] = biological target: T4, Human lysosome α-Galactosidase (Homo sapiens, UniProt P06280); experiment: Glycosidase inhibition, human lysosome α-galactosidase; assay type: biochemical
T4 sequence (P06280 32-429): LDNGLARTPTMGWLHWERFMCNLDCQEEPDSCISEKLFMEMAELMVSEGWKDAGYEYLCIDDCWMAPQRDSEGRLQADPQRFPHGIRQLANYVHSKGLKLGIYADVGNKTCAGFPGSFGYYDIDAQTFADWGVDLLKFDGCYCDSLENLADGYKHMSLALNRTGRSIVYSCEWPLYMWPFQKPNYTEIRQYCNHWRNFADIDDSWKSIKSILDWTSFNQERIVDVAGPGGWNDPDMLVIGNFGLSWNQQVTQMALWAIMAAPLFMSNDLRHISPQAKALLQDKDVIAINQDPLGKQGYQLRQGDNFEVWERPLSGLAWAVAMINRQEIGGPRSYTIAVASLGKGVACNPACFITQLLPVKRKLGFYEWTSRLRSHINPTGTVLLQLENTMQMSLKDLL

Rat intestinal sucrase = Rat intestinal sucrase (Rattus norvegicus, UniProt P23739); experiment: Glycosidase inhibition and kinetic analysis, rat intestinal sucrase; conditions: for Mode of inhibition of rat intestinal sucrase: kinetic analysis
Rat intestinal lactase = biological target: T5, Rat intestinal lactase (Rattus norvegicus, UniProt Q02401); experiment: Glycosidase inhibition, rat intestinal lactase; assay type: biochemical
T5 sequence (Q02401 868-1928): T1 sequence (Q02401 868-1928)

Rice α-Glucosidase = Rice α-Glucosidase (Oryza sativa subsp. japonica, UniProt Q653V7); experiment: Glycosidase inhibition, rice α-glucosidase; assay type: biochemical
[8] = biological target: T6, Rabbit muscle Glycogen phosphorylase (Oryctolagus cuniculus, UniProt P00489); experiment: Glycogen phosphorylase inhibition, rabbit muscle; assay type: biochemical
T6 sequence (P00489 1-843): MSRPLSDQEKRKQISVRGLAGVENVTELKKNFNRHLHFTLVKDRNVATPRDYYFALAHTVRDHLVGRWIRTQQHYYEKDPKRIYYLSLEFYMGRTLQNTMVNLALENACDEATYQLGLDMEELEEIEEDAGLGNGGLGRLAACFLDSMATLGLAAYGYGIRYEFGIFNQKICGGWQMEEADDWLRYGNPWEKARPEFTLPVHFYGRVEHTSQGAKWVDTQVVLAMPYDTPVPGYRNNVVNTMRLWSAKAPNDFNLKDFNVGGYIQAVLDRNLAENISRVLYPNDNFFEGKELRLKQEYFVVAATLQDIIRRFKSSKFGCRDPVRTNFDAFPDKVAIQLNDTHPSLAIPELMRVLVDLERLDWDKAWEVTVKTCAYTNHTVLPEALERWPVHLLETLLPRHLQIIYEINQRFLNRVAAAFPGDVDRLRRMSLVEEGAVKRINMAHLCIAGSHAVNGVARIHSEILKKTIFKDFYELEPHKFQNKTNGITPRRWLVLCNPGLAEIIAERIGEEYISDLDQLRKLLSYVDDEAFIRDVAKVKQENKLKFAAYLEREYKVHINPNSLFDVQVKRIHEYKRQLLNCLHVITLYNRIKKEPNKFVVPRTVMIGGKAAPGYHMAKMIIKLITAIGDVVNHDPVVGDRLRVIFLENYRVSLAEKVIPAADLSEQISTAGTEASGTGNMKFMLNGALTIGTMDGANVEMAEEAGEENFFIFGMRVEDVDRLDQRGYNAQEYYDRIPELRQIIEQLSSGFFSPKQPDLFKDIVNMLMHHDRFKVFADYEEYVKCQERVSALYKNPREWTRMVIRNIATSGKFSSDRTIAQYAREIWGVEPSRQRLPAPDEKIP

Almond β-Glucosidase = experiment: Glycosidase inhibition, almond β-glucosidase; assay type: biochemical; conditions: read-out: IC50 β-Glucosidase Almond
F508del-CFTR [9] = conditions: ref viii; cited from earlier work
ER glucosidases = conditions: cited from earlier work

Coffee beans α-Galactosidase, sequence (Q42656 16-378): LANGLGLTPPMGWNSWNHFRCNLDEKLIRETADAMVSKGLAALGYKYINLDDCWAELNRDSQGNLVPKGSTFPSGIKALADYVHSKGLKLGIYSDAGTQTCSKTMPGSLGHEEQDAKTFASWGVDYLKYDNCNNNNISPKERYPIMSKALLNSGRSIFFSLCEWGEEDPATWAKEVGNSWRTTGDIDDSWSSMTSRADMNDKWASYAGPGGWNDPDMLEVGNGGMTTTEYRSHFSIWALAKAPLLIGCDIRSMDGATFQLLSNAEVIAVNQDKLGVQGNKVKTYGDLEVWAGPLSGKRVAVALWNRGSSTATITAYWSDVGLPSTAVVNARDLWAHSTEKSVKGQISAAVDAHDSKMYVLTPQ
Rat intestinal sucrase, sequence (P23739 whole entry): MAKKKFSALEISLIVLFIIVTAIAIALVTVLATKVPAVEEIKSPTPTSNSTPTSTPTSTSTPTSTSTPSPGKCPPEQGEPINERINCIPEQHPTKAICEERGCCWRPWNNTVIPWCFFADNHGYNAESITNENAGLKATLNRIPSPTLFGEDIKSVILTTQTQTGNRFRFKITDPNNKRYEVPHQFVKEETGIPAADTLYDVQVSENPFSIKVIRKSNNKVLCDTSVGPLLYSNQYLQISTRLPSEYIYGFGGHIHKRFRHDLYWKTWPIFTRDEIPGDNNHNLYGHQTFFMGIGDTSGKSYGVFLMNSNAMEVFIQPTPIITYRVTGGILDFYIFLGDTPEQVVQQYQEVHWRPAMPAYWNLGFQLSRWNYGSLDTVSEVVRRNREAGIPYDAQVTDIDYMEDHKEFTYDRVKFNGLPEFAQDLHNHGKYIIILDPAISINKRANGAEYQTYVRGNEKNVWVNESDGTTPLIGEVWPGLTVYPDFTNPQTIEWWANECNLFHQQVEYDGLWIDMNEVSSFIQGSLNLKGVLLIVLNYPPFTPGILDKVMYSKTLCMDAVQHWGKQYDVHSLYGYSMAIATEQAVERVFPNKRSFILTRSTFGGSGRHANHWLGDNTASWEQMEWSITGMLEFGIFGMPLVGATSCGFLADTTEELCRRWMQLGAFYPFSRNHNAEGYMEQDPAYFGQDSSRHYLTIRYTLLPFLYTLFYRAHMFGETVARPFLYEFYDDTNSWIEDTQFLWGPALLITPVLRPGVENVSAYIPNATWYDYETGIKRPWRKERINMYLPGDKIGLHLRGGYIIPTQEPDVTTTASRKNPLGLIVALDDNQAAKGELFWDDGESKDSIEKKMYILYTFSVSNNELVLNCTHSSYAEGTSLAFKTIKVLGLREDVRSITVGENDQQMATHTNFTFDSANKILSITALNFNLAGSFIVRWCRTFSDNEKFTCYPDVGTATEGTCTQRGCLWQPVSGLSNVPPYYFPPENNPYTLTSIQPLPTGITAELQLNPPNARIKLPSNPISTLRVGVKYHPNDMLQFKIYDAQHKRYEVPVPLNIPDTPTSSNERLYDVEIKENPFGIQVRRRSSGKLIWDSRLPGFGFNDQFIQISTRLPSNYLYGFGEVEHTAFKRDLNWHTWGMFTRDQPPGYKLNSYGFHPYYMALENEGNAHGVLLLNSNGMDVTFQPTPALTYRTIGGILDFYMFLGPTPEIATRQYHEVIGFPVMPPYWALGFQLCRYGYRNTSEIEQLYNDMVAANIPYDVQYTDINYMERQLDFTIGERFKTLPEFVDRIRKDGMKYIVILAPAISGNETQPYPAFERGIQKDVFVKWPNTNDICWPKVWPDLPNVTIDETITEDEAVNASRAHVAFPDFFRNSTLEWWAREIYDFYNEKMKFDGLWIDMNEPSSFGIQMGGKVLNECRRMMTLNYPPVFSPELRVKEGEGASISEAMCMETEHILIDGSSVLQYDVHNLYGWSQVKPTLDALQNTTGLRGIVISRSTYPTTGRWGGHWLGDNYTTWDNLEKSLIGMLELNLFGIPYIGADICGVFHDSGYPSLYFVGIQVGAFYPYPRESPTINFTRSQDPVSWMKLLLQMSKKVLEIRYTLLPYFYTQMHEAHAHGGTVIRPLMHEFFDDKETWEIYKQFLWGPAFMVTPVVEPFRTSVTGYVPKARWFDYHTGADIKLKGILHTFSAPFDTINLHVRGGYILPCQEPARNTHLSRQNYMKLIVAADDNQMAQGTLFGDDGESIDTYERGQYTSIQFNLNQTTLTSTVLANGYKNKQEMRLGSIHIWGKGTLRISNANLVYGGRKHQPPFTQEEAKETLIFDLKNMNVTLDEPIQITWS
Rat intestinal isomaltase, sequence (P23739 whole entry): as above
Rice α-Glucosidase, sequence (Q653V7 34-885): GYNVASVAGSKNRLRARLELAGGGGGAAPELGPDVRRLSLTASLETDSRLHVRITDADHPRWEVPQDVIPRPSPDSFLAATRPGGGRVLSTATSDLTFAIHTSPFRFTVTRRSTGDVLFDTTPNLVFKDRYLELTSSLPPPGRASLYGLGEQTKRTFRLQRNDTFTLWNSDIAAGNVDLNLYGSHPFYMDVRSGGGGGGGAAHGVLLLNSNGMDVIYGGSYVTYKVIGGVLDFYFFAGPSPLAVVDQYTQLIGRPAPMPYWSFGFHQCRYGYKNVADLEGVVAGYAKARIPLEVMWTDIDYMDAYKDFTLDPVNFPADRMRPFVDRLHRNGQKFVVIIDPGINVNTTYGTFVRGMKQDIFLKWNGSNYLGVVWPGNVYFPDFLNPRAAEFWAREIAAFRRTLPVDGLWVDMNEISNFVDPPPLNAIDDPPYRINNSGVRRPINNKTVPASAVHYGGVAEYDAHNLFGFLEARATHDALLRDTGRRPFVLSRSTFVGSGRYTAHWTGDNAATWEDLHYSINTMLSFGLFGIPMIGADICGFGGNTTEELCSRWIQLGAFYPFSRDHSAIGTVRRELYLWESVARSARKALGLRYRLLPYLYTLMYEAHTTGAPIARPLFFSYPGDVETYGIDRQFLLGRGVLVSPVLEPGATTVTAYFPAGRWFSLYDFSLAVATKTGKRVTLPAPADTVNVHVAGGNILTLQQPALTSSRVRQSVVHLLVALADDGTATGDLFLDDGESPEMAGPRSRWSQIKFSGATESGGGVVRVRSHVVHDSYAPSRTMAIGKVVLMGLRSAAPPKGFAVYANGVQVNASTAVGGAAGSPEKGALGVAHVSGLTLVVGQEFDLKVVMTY

Row | SMILES | IC50 [1] | IC50 [2] | IC50 [3] | IC50 (Rat intestinal maltase) | Corrector effect on CFTR function (F508del-CFTR [4]) | IC50 (Snail β-Mannosidase) | IC50 [5] | IC50 (Jack beans α-Mannosidase) | IC50 [6] | IC50 [7] | IC50 (Rat intestinal sucrase) | Ki (Rat intestinal sucrase) | IC50 (Rat intestinal lactase) | IC50 (Rice α-Glucosidase) | IC50 [8] | Inhibition of glycogen phosphorylase (in words) [8] | IC50 (Almond β-Glucosidase) | also measured
1 | C[C@]1(CO)NC[C@@H](O)[C@@H]1O [4-C-Me-DAB 1D, 1,4-dideoxy-1,4-imino-4-C-methyl-D-arabinitol] | > 1000 µM | > 1000 µM | 3.4 µM | 0.74 µM | Neither of the 4-C-methyl pyrrolidines 1D and 1L had any corrector effect | > 1000 µM | > 1000 µM | > 1000 µM | > 1000 µM | > 1000 µM | 0.41 µM | 0.89 µM | > 1000 µM | 7.1 µM | > 1000 µM | no significant inhibition | > 1000 µM | Mode of inhibition of rat intestinal sucrase (Rat intestinal sucrase; listed as 1D): competitive inhibitor; Mode of inhibition of rat intestinal sucrase (Rat intestinal sucrase; listed as 4-C-Me-DAB): competitive
2 | C[C@@]1(CO)NC[C@H](O)[C@H]1O [4-C-Me-LAB 1L] | > 1000 µM | > 1000 µM | 5.1 µM | 2.4 µM | Neither of the 4-C-methyl pyrrolidines 1D and 1L had any corrector effect | > 1000 µM | > 1000 µM | > 1000 µM | > 1000 µM | > 1000 µM | – | 0.95 µM | > 1000 µM | 5.8 µM | > 1000 µM | no significant inhibition | > 1000 µM | Mode of inhibition of rat intestinal sucrase (Rat intestinal sucrase; listed as 1L): non-competitive inhibitor; Mode of inhibition of rat intestinal sucrase (Rat intestinal sucrase; listed as 4-C-Me-LAB): non-competitive
3 | OC[C@H]1NC[C@@H](O)[C@@H]1O [DAB 3D] | 756 µM | > 1000 µM | – | – | – | > 1000 µM | > 1000 µM | – | > 1000 µM | – | – | – | – | – | – | – | 250 µM | –
4 | OC[C@@H]1NC[C@H](O)[C@H]1O [LAB 3L] | > 1000 µM | > 1000 µM | – | – | – | > 1000 µM | > 1000 µM | > 1000 µM | > 1000 µM | – | – | – | – | – | – | – | > 1000 µM | –
5 | OC[C@@]1(O)CNC[C@H]1O [isoDAB 2D] | > 1000 µM | > 1000 µM | 20 µM | 24 µM | – | > 1000 µM | > 1000 µM | > 1000 µM | > 1000 µM | > 1000 µM | 15 µM | – | > 1000 µM | 41 µM | > 1000 µM | no significant inhibition | > 1000 µM | –
6 | OC[C@]1(O)CNC[C@@H]1O [isoLAB 2L] | > 1000 µM | > 1000 µM | > 1000 µM | > 1000 µM | – | > 1000 µM | > 1000 µM | > 1000 µM | > 1000 µM | > 1000 µM | > 1000 µM | – | > 1000 µM | > 1000 µM | > 1000 µM | no significant inhibition | > 1000 µM | Rescue of the defective F508del-CFTR function (F508del-CFTR [9]): significant rescue; also recorded: partially rescues; Inhibition of ER glucosidases (ER glucosidases): neither of which showed any inhibition
